For this experiment, the target named is T1, human PDI + hyperactive human Ero1α (Ero1α-mediated PDI oxidation) (Homo sapiens, UniProt P07237).
T1 construct: gene P4HB; recombinant from E. coli; with ERO1-like protein alpha
The experiment in a line: NADPH consumption assay coupled to glutathione reductase, A340. Type of experiment: biochemical.

T1 sequence (P07237 18-508): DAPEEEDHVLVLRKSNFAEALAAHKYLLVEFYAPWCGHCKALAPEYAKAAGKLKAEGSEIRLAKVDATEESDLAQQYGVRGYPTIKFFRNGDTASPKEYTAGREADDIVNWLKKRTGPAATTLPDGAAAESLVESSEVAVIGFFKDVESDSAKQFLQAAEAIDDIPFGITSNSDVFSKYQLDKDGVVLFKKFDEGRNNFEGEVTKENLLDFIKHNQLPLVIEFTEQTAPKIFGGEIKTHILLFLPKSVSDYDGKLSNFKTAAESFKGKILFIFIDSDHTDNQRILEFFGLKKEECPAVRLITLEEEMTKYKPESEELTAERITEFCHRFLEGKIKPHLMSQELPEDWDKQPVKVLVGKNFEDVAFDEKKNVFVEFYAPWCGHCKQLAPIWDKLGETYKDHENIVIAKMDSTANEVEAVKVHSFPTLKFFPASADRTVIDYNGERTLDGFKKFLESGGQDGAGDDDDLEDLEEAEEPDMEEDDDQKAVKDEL
T1 sequence (Q96HE7 24-468 C104A/C131A partner): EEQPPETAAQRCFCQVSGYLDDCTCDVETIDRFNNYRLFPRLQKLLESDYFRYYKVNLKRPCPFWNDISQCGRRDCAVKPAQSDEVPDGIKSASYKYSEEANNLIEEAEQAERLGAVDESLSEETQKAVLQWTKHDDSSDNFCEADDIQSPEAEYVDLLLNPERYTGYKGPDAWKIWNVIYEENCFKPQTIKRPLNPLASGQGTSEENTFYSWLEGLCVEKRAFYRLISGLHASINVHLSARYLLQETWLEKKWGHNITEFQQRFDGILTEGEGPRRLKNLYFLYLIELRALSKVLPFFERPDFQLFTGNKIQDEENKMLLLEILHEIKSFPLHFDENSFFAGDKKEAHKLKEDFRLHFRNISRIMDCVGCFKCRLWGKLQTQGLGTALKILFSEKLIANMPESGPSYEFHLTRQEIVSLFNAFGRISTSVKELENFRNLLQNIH

For `CC(C)(c1ccc(O)cc1)c1ccc(O)cc1` [bisphenol A, 2,2′-bis(4-hydroxyphenyl) propane], the IC50 came to 41 µM.

Usually IC50 stands for the midpoint of a concentration-inhibition curve.

Source of the values: article PMC4175339, “Inhibition of the Functional Interplay between Endoplasmic Reticulum (ER) Oxidoreduclin-1α (Ero1α) and Protein-disulfide Isomerase (PDI) by the Endocrine Disruptor Bisphenol A” (The Journal of Biological Chemistry, 2014).
